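Where inhibition never reached the appropriate level, the endpoint shown equals the highest concentration tested. Otherwise, values were interpolated linearly from a five-concentration, 48-hour dose response in 96-well plates. At the TGI there is no net growth.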

We go through 16 compounds from PubChem BioAssay (NCI).

Among the test systems are K-562 leukemia; A498 renal; RPMI-8226 leukemia; OVCAR-5 ovarian; SR leukemia; SNB-19 CNS; SK-MEL-2 melanoma; CAKI-1 renal; DU-145 prostate; HOP-62 NSCLC; MDA-N.
Assay in all cases: NCI anticancer screen, dose series, 48 h

For the compound `O=C(Nc1cccc2c1[nH]c1c(-c3ccccc3)nccc12)c1ccccc1[N+](=O)[O-]`, the TGI in the test with K-562 leukemia was over 100 µM; in the test on A498 renal, 60.3 µM; in the test on RPMI-8226 leukemia it was over 100 µM; in the test on OVCAR-5 ovarian, 63.2 µM; in the test with SR leukemia, over 100 µM; in the test on SNB-19 CNS, over 100 µM. Further, the figures for the TGI in the test with SK-MEL-2 melanoma and in the test with CAKI-1 renal were over 100 µM and 70.4 µM, respectively.

Turning to `COc1ccc(C2C3CCc4ccccc4C3=NN2S(=O)(=O)c2ccc(/C=C/C(=O)O)cc2)cc1` (stereo not given), the TGI in the test on K-562 leukemia is 15.7 µM; in the test with RPMI-8226 leukemia, 16 µM; in the test with DU-145 prostate, over 100 µM; in the test with OVCAR-5 ovarian, over 100 µM; with SR leukemia, 6.9 µM; in the test with SNB-19 CNS, over 100 µM. The TGI is 9.79 µM in the test on SK-MEL-2 melanoma, over 100 µM with CAKI-1 renal and over 100 µM in the test on HOP-62 NSCLC.

As to `COc1ccc(C2CC3(c4ccccc4)ON=C(c4ccccc4)N3c3ccccc3S2)cc1` (stereo not given), the TGI in the test with A498 renal, in the test with RPMI-8226 leukemia, with DU-145 prostate, in the test on OVCAR-5 ovarian, with MDA-N and in the test with CAKI-1 renal was over 100 µM throughout. In the test on HOP-62 NSCLC, this compound yielded a TGI of over 100 µM.

Take `CN1CCC2(CC1)C(=NC1CCCCC1)NC(=S)N2c1ccccc1`: the TGI in the test on K-562 leukemia, in the test with A498 renal, with RPMI-8226 leukemia, in the test on DU-145 prostate, with OVCAR-5 ovarian and in the test with SR leukemia was over 100 µM throughout. For the same compound, the TGI in the test on SNB-19 CNS and in the test on HOP-62 NSCLC was over 100 µM each time.

On to `O=C(NCCNCCCNC(=O)c1cc(-c2ccccc2)nc2ccccc12)c1cccc(OCc2ccccc2)c1OCc1ccccc1`, for which the TGI in the test with K-562 leukemia amounted to 3.48 µM; with A498 renal, 2.98 µM; in the test with RPMI-8226 leukemia, 5.05 µM; in the test with DU-145 prostate, 3.26 µM; in the test on OVCAR-5 ovarian, 3.37 µM; with MDA-N, 3.05 µM. In addition, the TGI in the test on CAKI-1 renal and with HOP-62 NSCLC was 3.01 µM each time.

`COc1ccccc1/C=C1\NC(=S)N(/C=C2\C(=O)Oc3ccccc3C2=O)C1=O`: the TGI with DU-145 prostate, with OVCAR-5 ovarian, with SNB-19 CNS, in the test with SK-MEL-2 melanoma, in the test with CAKI-1 renal and in the test with HOP-62 NSCLC was over 100 µM in each case.

Take `C=CCOC(=O)C1=C(CCC[C@@H](C)O[Si](C)(C)C(C)(C)C)N=C(N)N2[C@H](CCO)CC[C@@H]12`: the TGI with K-562 leukemia amounted to 21.5 µM; with A498 renal, 35.7 µM; in the test on RPMI-8226 leukemia, 27.6 µM; in the test with DU-145 prostate it was 28.6 µM; in the test with MDA-N it was 32.9 µM; in the test with SNB-19 CNS, 29 µM. Also, the values for the TGI with SK-MEL-2 melanoma, in the test with CAKI-1 renal and with HOP-62 NSCLC were 30.3 µM, 26.1 µM and 27.4 µM, respectively.

As for `CCCCCC/C=C1\CCC(CN2CCOCC2)C1=O` (stereo not given), the TGI with K-562 leukemia is 16.4 µM; in the test with A498 renal, 35.2 µM; with RPMI-8226 leukemia, over 100 µM; in the test on OVCAR-5 ovarian it was 37.4 µM; with SR leukemia it was 13.6 µM; with SNB-19 CNS, 38.9 µM. Moreover, the TGI with SK-MEL-2 melanoma stood at 33.4 µM; with CAKI-1 renal, 31.4 µM; in the test with HOP-62 NSCLC it was 32.8 µM.

For `Nc1nc2c(ncn2Cc2ccccc2CO)c(=O)[nH]1`, the TGI in the test with K-562 leukemia, in the test on A498 renal, with RPMI-8226 leukemia, with DU-145 prostate, with OVCAR-5 ovarian and in the test with SR leukemia was over 100 µM in each case. The TGI in the test on SNB-19 CNS, with SK-MEL-2 melanoma, in the test on CAKI-1 renal and in the test on HOP-62 NSCLC was over 100 µM in each case.

Consider `COc1cccc(NC(=O)C(=O)C(C(=O)c2ccccc2F)C2OC(=O)c3ccccc32)c1` (stereo not given), for which the TGI in the test with K-562 leukemia is over 100 µM; in the test with A498 renal, over 100 µM; with RPMI-8226 leukemia, 96.1 µM; in the test with OVCAR-5 ovarian, over 100 µM; in the test with SR leukemia, 48.5 µM; in the test with SNB-19 CNS it was over 100 µM. Moreover, the figures for the TGI in the test with SK-MEL-2 melanoma, with CAKI-1 renal and with HOP-62 NSCLC were 75.2 µM, over 100 µM and over 100 µM, respectively.

Consider `O=C(OCc1ccccc1)N(CCCCN(CCCNCc1ccccc1)C(=O)OCc1ccccc1)CCCNCc1ccccc1`, for which the TGI was 0.605 µM with RPMI-8226 leukemia; 2.55 µM in the test on DU-145 prostate; 2.83 µM in the test on OVCAR-5 ovarian; 0.983 µM with MDA-N; 1.11 µM in the test with SNB-19 CNS; 2.27 µM in the test on SK-MEL-2 melanoma. The same compound showed a TGI in the test on CAKI-1 renal of 2.93 µM.

As to `Fc1ccc(-c2sc(-c3cccs3)cc2Cc2cccs2)cc1`, the TGI in the test with K-562 leukemia, in the test on A498 renal, in the test with DU-145 prostate, with OVCAR-5 ovarian, in the test on SNB-19 CNS and with SK-MEL-2 melanoma was over 100 µM in each case. In addition, the TGI with CAKI-1 renal is over 100 µM.

`Brc1ccc2c(c1)-c1nc3nc4c(cc3cc1CC2)CCc1ccc(Br)cc1-4`: the TGI with K-562 leukemia, with A498 renal, in the test on RPMI-8226 leukemia, in the test with OVCAR-5 ovarian, in the test on MDA-N and with SNB-19 CNS was over 100 µM in each case. The TGI in the test on SK-MEL-2 melanoma, in the test with CAKI-1 renal and with HOP-62 NSCLC was over 100 µM throughout.

Consider `CC(=O)C1=C(C)N(c2ccc(C)cc2)C2(O)C3=C(C(=O)c4ccccc4C3=O)C(O)=CC12Cl` (stereo not given), for which the TGI is over 100 µM in the test with K-562 leukemia; 10.3 µM in the test on A498 renal; over 100 µM in the test with RPMI-8226 leukemia; over 100 µM in the test with DU-145 prostate; 71.6 µM with OVCAR-5 ovarian; over 100 µM with SR leukemia. In addition, the TGI in the test with SNB-19 CNS was 35.8 µM; in the test on SK-MEL-2 melanoma it was 33 µM; in the test with CAKI-1 renal, 87.1 µM; with HOP-62 NSCLC, over 100 µM.

As for `O=C1C(Cl)N(c2cccc([N+](=O)[O-])c2)C1c1c[nH]c2ccccc12` (stereo not given), the TGI was 64.1 µM in the test with K-562 leukemia; 52.2 µM in the test on RPMI-8226 leukemia; 37.4 µM in the test with OVCAR-5 ovarian; 57 µM in the test with SR leukemia; 57.8 µM with SNB-19 CNS; 27.5 µM in the test on SK-MEL-2 melanoma. The same compound displayed a TGI in the test with HOP-62 NSCLC of 33.6 µM.

Regarding `CSc1nc2c(ncn2C2OCC(O)C(O)C2O)c(=O)n1C` (stereo not given), the TGI in the test with K-562 leukemia, in the test with A498 renal, in the test on RPMI-8226 leukemia, in the test with OVCAR-5 ovarian, with SNB-19 CNS and with SK-MEL-2 melanoma was over 100 µM in each case. The same compound had a TGI with HOP-62 NSCLC of over 100 µM.
